Laboratory results reported in paper PMC7673765 (Science Advances, 2020).
“Also recorded” adds a separate entry of the source.

Assays:
[1] = system: BC cell lines (MCF7, T47D, MDA-MB-231); assay: Cell death and apoptosis; assay type: cell-based, human; conditions: increasing concentrations of C28, 72 hours
[2] = target: T1, IRAK4 (Homo sapiens, UniProt Q9NWZ3); assay: Western blots of kinases in BC cell lines; conditions: 10 μM C28, different time points
T1 sequence (Q9NWZ3 1-460): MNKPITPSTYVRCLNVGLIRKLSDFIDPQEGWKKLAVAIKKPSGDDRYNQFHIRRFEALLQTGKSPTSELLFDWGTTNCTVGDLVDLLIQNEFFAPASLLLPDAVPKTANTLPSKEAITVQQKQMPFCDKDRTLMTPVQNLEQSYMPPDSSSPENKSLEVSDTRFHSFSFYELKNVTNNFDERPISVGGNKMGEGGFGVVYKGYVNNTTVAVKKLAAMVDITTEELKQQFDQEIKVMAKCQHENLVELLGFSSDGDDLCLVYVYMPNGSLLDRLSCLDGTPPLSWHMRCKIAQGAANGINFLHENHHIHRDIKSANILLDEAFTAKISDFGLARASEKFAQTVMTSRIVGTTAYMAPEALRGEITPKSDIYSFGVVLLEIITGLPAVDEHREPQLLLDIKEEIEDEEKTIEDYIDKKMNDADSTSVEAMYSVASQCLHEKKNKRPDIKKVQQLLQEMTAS

[3] = target: human HSP90α (Homo sapiens, UniProt P07900); assay: Isothermal titration calorimetry; assay type: binding; conditions: 0.2 mM C28 injected into 20 μM human HSP90α
[4] = system: LMTK3; assay: Western blots of LMTK3 in BC cell lines; assay type: cell-based, human; conditions: for endogenous LMTK3 protein levels (Western blot): increasing concentrations of HSP90 inhibitor, 72 hours
[5] = system: MDA-MB-231 xenografts; assay: MDA-MB-231 xenograft mouse model; assay type: in vivo, NSG mice; conditions: C28 10 mg/kg oral daily; after 23 days
[6] = system: NCI-60 cell lines; assay: NCI-60 five-dose evaluation; assay type: cell-based, human; conditions: five doses
[7] = target: HIPK2 (Homo sapiens, UniProt Q9H2X6); assay: Western blots of kinases in BC cell lines; conditions: 10 μM C28, different time points
[8] = system: MMTV-Neu mammary tumors; assay: MMTV-Neu transgenic mammary tumor model; assay type: in vivo, mice
[9] = system: MCF12A; assay: Cell death and apoptosis; assay type: cell-based, human; conditions: even at high concentrations of C28 and longer time points
[10] = system: NCI-60 panel of tumor cell lines; assay: NCI-60 one-dose screening; assay type: cell-based; conditions: Homo sapiens, 24 h, read-out: inhibition of all cancer cell lines
[11] = system: CDC37; assay: Western blots of chaperones in BC cell lines; assay type: cell-based, human; conditions: increasing concentrations of C28, 48 hours
[12] = system: BC cells; assay: Cell viability assay; assay type: cell-based; conditions: Homo sapiens, 72 h, read-out: IC50 values, growth of BC cells
[13] = system: ERα; assay: Western blots of ERα in BC cell lines; assay type: cell-based, human
[14] = system: HSP90; assay: Western blots of chaperones in BC cell lines; assay type: cell-based, human; conditions: increasing concentrations of C28, 48 hours
[15] = Histopathologic analysis of tumor sections and organs, MMTV-Neu mice; assay type: in vivo; conditions: C28 10 mg/kg oral daily
[16] = Pharmacokinetics in mice; assay type: in vivo; conditions: male, BALB/c (nude), mouse, plasma
[17] = system: HSP70; assay: Western blots of HSP70 in BC cell lines; assay type: cell-based, human; conditions: increasing concentrations of HSP90 inhibitor, 72 hours
[18] = target: T2, human CDC37 (cell division cycle 37), recombinant (human, UniProt Q16543 1-378); assay: MST
T2 sequence (looked up): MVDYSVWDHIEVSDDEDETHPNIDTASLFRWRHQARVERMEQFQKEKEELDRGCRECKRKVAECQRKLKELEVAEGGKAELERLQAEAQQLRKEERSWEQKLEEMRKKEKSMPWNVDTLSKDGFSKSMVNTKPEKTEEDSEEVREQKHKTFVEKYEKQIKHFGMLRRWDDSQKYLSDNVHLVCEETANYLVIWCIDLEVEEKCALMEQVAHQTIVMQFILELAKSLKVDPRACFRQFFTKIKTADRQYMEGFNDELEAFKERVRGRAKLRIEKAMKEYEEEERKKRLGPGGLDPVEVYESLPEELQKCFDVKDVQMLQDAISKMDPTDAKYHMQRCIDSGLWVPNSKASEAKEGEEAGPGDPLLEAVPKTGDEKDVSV

HIPK2, sequence (Q9H2X6 whole entry): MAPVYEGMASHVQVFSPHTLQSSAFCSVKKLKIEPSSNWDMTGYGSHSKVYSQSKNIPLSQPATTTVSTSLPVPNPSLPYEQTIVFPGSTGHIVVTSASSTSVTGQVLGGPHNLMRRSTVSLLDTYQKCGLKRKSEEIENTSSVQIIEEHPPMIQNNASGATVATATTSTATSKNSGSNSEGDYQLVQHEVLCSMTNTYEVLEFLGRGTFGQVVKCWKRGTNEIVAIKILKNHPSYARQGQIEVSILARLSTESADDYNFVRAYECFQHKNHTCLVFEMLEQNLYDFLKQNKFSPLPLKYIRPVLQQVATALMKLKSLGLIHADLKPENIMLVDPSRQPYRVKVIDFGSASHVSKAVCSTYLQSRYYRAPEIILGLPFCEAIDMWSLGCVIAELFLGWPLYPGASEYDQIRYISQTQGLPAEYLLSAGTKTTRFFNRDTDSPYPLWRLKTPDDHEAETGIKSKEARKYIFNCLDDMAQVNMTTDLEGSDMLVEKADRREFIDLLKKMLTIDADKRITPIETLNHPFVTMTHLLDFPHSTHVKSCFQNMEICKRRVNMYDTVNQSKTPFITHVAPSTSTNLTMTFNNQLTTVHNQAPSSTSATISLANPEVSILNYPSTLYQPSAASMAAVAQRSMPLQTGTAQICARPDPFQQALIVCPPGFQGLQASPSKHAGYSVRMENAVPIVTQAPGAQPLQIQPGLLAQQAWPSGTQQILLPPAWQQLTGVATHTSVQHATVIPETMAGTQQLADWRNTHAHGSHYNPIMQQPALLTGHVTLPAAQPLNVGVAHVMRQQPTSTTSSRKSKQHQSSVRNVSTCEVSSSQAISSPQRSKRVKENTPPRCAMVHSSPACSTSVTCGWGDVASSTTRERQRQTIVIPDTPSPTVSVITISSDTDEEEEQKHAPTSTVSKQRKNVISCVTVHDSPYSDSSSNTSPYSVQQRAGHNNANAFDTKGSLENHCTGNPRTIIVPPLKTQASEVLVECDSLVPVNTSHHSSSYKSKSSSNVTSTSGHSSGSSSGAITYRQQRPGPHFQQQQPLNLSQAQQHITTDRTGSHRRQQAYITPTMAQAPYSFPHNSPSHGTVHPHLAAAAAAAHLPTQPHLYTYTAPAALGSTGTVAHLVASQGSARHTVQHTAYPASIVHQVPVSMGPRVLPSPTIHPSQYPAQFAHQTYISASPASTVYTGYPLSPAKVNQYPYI

For `FC(F)(F)Oc1cccc(-c2cnc3ccc(-c4ccncc4)nn23)c1` [C28, 6-(pyridin-4-yl)-3-(3-(trifluoromethoxy)phenyl)imidazo[1,2-b]pyridazine], the “apoptosis of BC cell lines” value [1] was “triggered apoptosis”, the “IRAK4 protein levels (Western blot)” value [2] was “degradation” and the “binding to HSP90α (ITC)” value [3] was “no detectible heat of interaction; also recorded: does not bind to HSP90”. The “LMTK3 protein levels (Western blot)” value ([4]; increasing concentrations of C28, different time points) was “time- and dose-dependent degradation of LMTK3”, the “tumor growth compared to the control group” value [5] was “significantly impeded growth” and the “sensitivity of renal cancer cells” value [6] was “more sensitive”. For the same molecule, the “HIPK2 protein levels (Western blot)” value [7] was “degradation”, the “Ki-67 IHC analysis of tumor sections” value ([8]; C28 10 mg/kg) was “decreased proliferation” and the “LMTK3 expression in tumors (IHC staining)” value ([8]; C28 10 mg/kg) was “reduction of LMTK3 expression”. The “tumor growth compared to the vehicle-treated group” value ([8]; C28 10 mg/kg oral daily) was “nearly completely abrogated tumor growth”, the “cell death of nontransformed MCF12A” value [9] was “low percentage of cell death” and the inhibition at 10 µM [10] was greater than 50%. For the same molecule, the “protein levels of CDC37 (Western blot)” value [11] was “no effect”, the IC50 [12] was 6.5 to 8.64 µM and the “protein levels of ERα (Western blot)” value ([13]; BC cell lines treated with C28) was “decreased protein levels of ERα”. The “protein levels of HSP90 (Western blot)” value [14] was “no effect”, the “toxicity (histopathology of tumor, lung, stomach, heart, kidney, liver, spleen)” value [15] was “lack of toxicity” and the half-life ([16]; ip, 10 mg/kg, T1/2, plasma) was roughly 59 min. For the same molecule, the Cmax ([16]; iv, 5 mg/kg) was 4.3 µM, the half-life ([16]; iv, 5 mg/kg, half-life (T1/2)) was roughly 10 min and the Cmax ([16]; po, 10 mg/kg) was 632 ng/mL. It also gave a half-life ([16]; po, 10 mg/kg, T1/2, plasma) of roughly 62 min.

In the case of `COC1=C2C[C@@H](C)C[C@H](OC)[C@H](O)[C@@H](C)/C=C(\C)[C@H](OC(N)=O)[C@@H](OC)/C=C\C=C(/C)C(=O)NC(=CC1=O)C2=O` [geldanamycin], the “endogenous LMTK3 protein levels (Western blot)” value [4] is reported as “reduction of endogenous LMTK3 protein levels” and the “HSP70 levels (Western blot)” value [17] is reported as “induction of HSP70”.

In the case of `CCNC(=O)c1noc(-c2cc(C(C)C)c(O)cc2O)c1-c1ccc(CN2CCOCC2)cc1` [NVP-AUY922], the “endogenous LMTK3 protein levels (Western blot)” value [4] is reported as “reduction of endogenous LMTK3 protein levels”, the “HSP70 levels (Western blot)” value [17] is reported as “induction of HSP70” and the “ERα levels (Western blot)” value ([13]; BC cell lines, HSP90 inhibitor, 72 hours) is reported as “down-regulation of ERα”.

B1: LMTK3 catalytic domain (LMTK3cat; amino acids 134 to 444) (domain or fragment, UniProt Q96Q04 105-415, looked up)
chain: LAEVSLPMPAPQPSHSDMTTPLGLSRQHLSYLQEIGSGWFGKVILGEIFSDYTPAQVVVKELRASAGPLEQRKFISEAQPYRSLQHPNVLQCLGLCVETLPFLLIMEFCQLGDLKRYLRAQRPPEGLSPELPPRDLRTLQRMGLEIARGLAHLHSHNYVHSDLALRNCLLTSDLTVRIGDYGLAHSNYKEDYYLTPERLWIPLRWAAPELLGELHGTFMVVDQSRESNIWSLGVTLWELFEFGAQPYRHLSDEEVLAFVVRQQHVKLARPRLKLPYADYWYDILQSCWRPPAQRPSASDLQLQLTYLLSER
modifications: covalently labeled with a red NHS-647 fluorophore (NT647) for MST
B1 gave a Kd [18] of 2210 ± 1170 nM.
